From article PMC3131678 (Interdisciplinary Toxicology, 2011)
Where two headings read alike, the source gives them in different places.

Legend:
CYP2E1 [1] = target: T1, CYP2E1 (Sus scrofa, UniProt P79383); assay: Inhibition of p-nitrophenol hydroxylase (PNPH) activity in porcine hepatic microsomes
Method: (§1) All procedures were done on ice.
(§2) All steroids were dissolved in methanol. […] Kinetic studies were performed under linear conditions.
(§3) The activities were measured in pooled microsomes, thus taking into consideration between-individual variations in enzyme activities and potential response to the presence of steroids.

CYP1A2 [2] = target: T2, CYP1A2 (Sus scrofa, UniProt F1SJ26); assay: Inhibition of 7-methoxyresorufin O-demethylase (MROD) activity in porcine hepatic microsomes
T2 sequence (F1SJ26 1-516): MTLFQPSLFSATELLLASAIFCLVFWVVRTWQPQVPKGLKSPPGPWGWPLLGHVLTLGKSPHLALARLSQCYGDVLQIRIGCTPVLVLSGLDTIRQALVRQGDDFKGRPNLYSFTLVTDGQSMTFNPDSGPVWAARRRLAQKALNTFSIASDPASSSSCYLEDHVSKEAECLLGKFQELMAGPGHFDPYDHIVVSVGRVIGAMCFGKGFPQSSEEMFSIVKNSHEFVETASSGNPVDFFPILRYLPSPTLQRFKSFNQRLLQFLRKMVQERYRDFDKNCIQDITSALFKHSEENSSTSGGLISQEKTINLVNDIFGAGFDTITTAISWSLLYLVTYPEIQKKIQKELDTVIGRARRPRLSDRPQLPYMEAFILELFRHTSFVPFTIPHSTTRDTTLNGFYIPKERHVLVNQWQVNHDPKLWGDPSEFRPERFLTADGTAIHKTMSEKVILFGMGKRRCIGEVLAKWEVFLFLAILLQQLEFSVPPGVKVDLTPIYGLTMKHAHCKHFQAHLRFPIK
Method: as §1, §2, §3

CYP1A1 [3] = assay: Inhibition of 7-ethoxyresorufin O-deethylase (EROD) activity in porcine hepatic microsomes
Method: as §1, §2, §3

CYP1A1 [4] = assay: Enzyme kinetic analysis of EROD (resorufin formation from 7-ethoxyresorufin) in porcine hepatic microsomes; type: in vitro ADME; conditions: CI 95% confidence interval
Method: as §1, §2
V=(Vmax1*S)/(Km1+S)+(V max2*S)/(Km2+S),
where Km1 and Km2 are Michaelis constants for the high- and low-affinity components, respectively, and Vmax1 and Vmax2 are the maximum reaction velocities for the high- and low-affinity components, respectively.

CYP2E1 [5] = target: T1, CYP2E1; conditions: cited from earlier work
CYP1A1 [6] = system: CYP1A1; set-up: method as in Zamaratskaia et al., [2009]; conditions: 1.8 to 72 pmol/ml; microsomes from entire and castrated male pigs; ref Zamaratskaia et al., [2009]; cited from earlier work
CYP1A2 [7] = target: T2, CYP1A2
Method: as §1, §2

[8] = all concentrations tested (up to 100.0 µM), microsomes from mature male pigs
[9] = steroid 0.55, 1.0 and 100.0 µM, pooled microsomes from entire male pigs
[10] = 100 µM steroid, pooled microsomes from three entire male pigs, altered = differs from control by at least 30%
[11] = lower concentrations (0.02 and 1.0 µM), pooled microsomes from entire male pigs

T1 sequence (P79383 whole entry): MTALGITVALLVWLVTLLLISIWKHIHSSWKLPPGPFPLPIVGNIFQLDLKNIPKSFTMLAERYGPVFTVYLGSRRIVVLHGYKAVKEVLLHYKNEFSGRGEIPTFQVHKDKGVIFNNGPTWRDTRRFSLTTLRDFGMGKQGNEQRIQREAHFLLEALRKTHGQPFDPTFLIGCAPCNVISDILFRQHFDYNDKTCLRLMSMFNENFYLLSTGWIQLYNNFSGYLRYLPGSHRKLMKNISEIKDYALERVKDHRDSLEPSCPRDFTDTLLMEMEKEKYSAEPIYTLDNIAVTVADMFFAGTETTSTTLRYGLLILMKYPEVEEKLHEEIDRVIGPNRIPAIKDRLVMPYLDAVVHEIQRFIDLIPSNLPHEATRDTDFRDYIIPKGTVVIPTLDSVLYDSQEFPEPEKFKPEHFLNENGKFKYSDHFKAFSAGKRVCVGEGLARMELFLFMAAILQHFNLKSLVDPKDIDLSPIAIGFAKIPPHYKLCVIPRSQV

Compound | Inhibition of PNPH activity (CYP2E1 [1]; [8]) | Inhibition of EROD activity (CYP1A1 [3]; [9]) | Inhibition of MROD activity (CYP1A2 [2]; [10]) | Inhibition of MROD activity (CYP1A2 [2]; [11]) | Inhibition of EROD activity (CYP1A1 [3]; [10]) | Inhibition of EROD activity (CYP1A1 [3]; [11]) | further results
C[C@]12CC[C@H](O)C[C@@H]1CC[C@@H]1[C@@H]2CC[C@]2(C)C=CC[C@@H]12 [3β-androstenol] | inhibited only by 100 µM of 17β-estradiol | only 17β-estradiol and 17α-estradiol inhibited | – | – | – | – | Inhibition of MROD activity (CYP1A2 [2]; [9]): only 17β-estradiol and 17α-estradiol inhibited
CCOc1ccc2nc3ccc(=O)cc-3oc2c1 [7-ethoxyresorufin] | – | – | – | – | – | – | Km (CYP1A1 [4]; high affinity component): 0.01 µM; Km (CYP1A1 [4]; low affinity component): 1.7 µM; Vmax, pmol/min/mg (CI) (CYP1A1 [4]; low affinity component): 15.2 (9.64–20.71) pmol/min/mg
C[C@]12CC[C@@H]3c4ccc(O)cc4CC[C@H]3[C@@H]1CC[C@@H]2O [17β-estradiol] | – | – | inhibited | no inhibitory effect | inhibited | no inhibitory effect | Type of inhibition of PNPH (CYP2E1 [5]; microsomes from prepubertal male pigs, ref Zamaratskaia et al. ([2007])): mixed inhibitor; Inhibition of PNPH activity (CYP2E1 [5]; physiological concentrations, ref Rasmussen et al. (2010a)): inhibit; Inhibition of PNPH activity (CYP2E1 [1]; 100 µM steroid, pooled microsomes from three mature entire male pigs): Inhibition of PNPH activity was observed; Inhibition of PNPH activity (CYP2E1 [1]; lower concentrations (0.02 and 1.0 µM), microsomes from mature male pigs): observed only in the presence of high concentrations; Effect on EROD activity (CYP1A1 [6]): did not alter
C[C@]12CCC(=O)C[C@@H]1CC[C@@H]1[C@@H]2CC[C@]2(C)[C@@H](O)CC[C@@H]12 [DHT, dihydrotestosterone] | inhibited only by 100 µM of 17β-estradiol | only 17β-estradiol and 17α-estradiol inhibited | – | – | – | – | Magnitude of MROD inhibition (CYP1A2 [2]; steroid 0.55, 1.0 and 100.0 µM, relative to control incubations): ≤ 30%
C[C@]12CC[C@@H]3c4ccc(O)cc4CC[C@H]3[C@@H]1CC[C@H]2O [17α-estradiol] | inhibited only by 100 µM of 17β-estradiol | – | inhibited | no inhibitory effect | inhibited | no inhibitory effect | –
COc1ccc2nc3ccc(=O)cc-3oc2c1 [7-methoxy-resorufin, 7-methoxyresorufin] | – | – | – | – | – | – | Km (CYP1A2 [7]): 0.13 µM
